Data from ChEMBL document CHEMBL5291721, “A preclinical secondary pharmacology resource illuminates target-adverse drug reaction associations of marketed drugs” (Nat Commun, 2023).

Experiments:
Cannabinoid receptor 1 [1] = target: T1, Cannabinoid receptor 1 (Homo sapiens, UniProt P21554); format: functional, cell-based
Cannabinoid receptor 1 [2] = target: T1, Cannabinoid receptor 1; format: functional, cell-based; remark: listed apart in the source
[3] = target: 5-hydroxytryptamine receptor 2A (Homo sapiens, UniProt P28223); format: functional, cell-based
Chain of 5-hydroxytryptamine receptor 2A (P28223 whole entry): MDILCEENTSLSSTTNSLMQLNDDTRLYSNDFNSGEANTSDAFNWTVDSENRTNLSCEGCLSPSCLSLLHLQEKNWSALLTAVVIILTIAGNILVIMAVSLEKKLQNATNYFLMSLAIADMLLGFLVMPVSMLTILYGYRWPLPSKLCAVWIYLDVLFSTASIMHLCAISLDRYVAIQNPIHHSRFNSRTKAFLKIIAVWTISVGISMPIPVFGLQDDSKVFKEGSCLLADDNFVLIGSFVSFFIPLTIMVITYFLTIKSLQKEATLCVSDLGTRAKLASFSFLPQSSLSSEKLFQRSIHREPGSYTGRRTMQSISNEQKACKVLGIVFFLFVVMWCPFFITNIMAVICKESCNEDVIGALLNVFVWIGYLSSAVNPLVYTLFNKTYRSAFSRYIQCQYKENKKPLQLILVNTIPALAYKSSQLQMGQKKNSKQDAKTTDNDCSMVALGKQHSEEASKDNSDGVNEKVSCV

[4] = target: T2, Alpha-2B adrenergic receptor (Homo sapiens, UniProt P18089)
T2 sequence (P18089 whole entry): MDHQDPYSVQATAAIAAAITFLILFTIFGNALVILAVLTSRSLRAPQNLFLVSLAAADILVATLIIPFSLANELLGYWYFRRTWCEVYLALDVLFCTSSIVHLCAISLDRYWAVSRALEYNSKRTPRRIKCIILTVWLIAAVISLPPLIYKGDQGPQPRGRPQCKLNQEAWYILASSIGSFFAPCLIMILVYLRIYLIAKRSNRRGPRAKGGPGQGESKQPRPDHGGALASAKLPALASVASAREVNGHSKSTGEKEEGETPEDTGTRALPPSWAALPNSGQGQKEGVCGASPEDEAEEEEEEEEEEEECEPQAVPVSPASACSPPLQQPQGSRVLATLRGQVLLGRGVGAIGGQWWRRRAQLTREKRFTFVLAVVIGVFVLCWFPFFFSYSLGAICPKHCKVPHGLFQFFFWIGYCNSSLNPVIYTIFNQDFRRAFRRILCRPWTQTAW

Estrogen receptor = target: T3, Estrogen receptor (Homo sapiens, UniProt P03372)
T3 sequence (P03372 whole entry): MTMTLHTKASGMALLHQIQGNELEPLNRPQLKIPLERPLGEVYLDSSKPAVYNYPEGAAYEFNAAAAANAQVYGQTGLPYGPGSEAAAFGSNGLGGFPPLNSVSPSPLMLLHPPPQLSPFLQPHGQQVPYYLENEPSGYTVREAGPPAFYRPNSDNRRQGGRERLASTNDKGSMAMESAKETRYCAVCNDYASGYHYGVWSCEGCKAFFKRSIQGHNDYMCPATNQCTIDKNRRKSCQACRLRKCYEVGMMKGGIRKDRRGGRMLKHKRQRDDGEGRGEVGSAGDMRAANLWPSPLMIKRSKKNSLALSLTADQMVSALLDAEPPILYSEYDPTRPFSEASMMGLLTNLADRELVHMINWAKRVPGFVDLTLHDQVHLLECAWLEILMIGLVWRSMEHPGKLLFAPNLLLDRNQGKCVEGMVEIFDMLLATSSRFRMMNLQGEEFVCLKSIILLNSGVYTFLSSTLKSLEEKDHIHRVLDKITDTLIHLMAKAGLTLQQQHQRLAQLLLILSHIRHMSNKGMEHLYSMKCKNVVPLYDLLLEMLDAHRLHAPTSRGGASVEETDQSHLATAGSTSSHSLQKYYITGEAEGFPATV

[5] = target: T4, Gastrin/cholecystokinin type B receptor (Homo sapiens, UniProt P32239)
T4 sequence (P32239 whole entry): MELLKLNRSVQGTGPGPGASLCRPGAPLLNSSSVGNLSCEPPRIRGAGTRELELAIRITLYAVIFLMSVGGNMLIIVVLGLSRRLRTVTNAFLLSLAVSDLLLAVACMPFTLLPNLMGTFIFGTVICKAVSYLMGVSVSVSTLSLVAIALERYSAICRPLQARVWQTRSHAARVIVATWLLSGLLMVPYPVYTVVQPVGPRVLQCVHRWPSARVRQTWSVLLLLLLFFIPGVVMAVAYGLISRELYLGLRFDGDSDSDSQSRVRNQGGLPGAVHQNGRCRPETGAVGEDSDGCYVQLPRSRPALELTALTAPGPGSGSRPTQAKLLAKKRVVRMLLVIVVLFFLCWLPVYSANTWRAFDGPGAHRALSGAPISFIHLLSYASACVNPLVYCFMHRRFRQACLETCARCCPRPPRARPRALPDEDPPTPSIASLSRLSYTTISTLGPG

[6] = target: Sodium-dependent serotonin transporter (Homo sapiens, UniProt P31645)
Chain of Sodium-dependent serotonin transporter (P31645 whole entry): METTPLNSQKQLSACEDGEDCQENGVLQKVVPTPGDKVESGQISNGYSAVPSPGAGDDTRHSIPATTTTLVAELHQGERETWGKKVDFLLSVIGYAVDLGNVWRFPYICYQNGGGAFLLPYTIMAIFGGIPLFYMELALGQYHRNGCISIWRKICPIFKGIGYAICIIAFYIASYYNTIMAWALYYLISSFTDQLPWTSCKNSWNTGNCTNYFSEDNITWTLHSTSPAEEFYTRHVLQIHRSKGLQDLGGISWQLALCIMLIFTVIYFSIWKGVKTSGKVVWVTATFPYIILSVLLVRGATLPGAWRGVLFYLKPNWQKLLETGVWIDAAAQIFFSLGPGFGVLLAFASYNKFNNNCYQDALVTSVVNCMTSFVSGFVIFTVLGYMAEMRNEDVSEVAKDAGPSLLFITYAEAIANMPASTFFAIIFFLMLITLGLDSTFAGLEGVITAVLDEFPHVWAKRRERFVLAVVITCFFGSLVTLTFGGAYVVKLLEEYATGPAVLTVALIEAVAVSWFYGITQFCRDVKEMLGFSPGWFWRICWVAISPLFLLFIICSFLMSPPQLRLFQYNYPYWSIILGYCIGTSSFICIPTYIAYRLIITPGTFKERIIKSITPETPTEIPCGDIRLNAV

[7] = target: T5, Equilibrative nucleoside transporter 1 (Homo sapiens, UniProt Q99808)
T5 sequence (Q99808 whole entry): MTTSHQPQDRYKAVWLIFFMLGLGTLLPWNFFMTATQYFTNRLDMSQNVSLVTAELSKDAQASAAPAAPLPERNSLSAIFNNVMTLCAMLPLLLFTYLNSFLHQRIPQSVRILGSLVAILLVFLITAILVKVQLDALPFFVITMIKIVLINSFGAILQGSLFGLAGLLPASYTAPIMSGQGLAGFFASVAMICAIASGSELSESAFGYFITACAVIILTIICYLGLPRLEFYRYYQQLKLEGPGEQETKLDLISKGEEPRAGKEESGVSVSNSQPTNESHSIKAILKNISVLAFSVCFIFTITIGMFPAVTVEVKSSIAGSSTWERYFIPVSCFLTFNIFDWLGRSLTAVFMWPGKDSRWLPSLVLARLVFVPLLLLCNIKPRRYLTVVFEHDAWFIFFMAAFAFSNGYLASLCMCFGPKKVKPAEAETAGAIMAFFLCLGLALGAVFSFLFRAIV

[8] = target: Beta-2 adrenergic receptor (Homo sapiens, UniProt P07550)
Chain of Beta-2 adrenergic receptor (P07550 whole entry): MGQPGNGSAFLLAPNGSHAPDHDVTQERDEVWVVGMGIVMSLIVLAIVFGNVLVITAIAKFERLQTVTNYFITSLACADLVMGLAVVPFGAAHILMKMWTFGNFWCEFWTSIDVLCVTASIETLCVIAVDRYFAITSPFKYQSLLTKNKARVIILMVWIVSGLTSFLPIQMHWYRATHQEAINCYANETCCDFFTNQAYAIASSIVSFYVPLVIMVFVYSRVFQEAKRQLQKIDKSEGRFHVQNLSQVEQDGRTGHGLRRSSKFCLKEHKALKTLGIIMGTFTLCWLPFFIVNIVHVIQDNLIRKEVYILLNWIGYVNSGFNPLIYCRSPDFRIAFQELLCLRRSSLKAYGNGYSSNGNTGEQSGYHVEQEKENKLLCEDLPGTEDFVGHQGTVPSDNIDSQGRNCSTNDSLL

Histamine H3 receptor = Histamine H3 receptor (Homo sapiens, UniProt Q9Y5N1)
Chain of Histamine H3 receptor (Q9Y5N1 whole entry): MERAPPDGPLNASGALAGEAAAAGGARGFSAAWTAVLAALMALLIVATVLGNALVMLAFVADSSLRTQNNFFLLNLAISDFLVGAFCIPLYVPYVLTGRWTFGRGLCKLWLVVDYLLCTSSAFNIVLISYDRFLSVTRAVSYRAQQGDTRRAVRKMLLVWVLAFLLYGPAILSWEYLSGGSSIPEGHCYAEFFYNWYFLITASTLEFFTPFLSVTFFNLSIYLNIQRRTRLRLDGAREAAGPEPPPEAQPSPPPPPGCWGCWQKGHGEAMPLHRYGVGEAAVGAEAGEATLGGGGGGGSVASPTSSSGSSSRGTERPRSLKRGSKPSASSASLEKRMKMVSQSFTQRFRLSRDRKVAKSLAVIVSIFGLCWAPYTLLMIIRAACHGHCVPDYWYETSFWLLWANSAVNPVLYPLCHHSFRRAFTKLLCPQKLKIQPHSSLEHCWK
Further: assay procedure not described here.

T1 sequence (P21554 whole entry): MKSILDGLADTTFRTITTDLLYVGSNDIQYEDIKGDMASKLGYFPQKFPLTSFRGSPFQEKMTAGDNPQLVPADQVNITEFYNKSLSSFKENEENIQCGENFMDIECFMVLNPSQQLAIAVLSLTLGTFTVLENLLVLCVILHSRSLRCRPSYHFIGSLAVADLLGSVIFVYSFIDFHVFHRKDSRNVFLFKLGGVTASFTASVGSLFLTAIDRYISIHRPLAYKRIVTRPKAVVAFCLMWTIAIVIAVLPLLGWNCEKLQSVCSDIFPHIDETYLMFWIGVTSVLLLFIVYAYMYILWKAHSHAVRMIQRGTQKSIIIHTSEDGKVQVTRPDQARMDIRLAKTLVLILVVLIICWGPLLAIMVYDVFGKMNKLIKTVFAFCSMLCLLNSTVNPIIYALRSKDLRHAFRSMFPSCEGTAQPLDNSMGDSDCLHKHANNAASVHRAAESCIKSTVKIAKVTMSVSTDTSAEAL

SMILES | AC50 (Cannabinoid receptor 1 [1]) | AC50 (Cannabinoid receptor 1 [2]) | AC50 [3] | AC50 [4] | AC50 (Estrogen receptor) | AC50 [5] | AC50 [6] | AC50 [7] | AC50 [8] | AC50 (Histamine H3 receptor)
CO/N=C(\C(=O)N[C@@H]1C(=O)N2C(C(=O)[O-])=C(C[n+]3cccc4c3CCC4)CS[C@H]12)c1csc(N)n1 [CEFPIROME] | > 30 µM | > 30 µM | > 30 µM | > 30 µM |  |  |  |  |  | 
CC(C)=CCOc1ccc(/C=C/C(=O)c2ccc(OCC=C(C)C)cc2OCC(=O)O)cc1 [SOFALCONE] | > 30 µM | 11 µM | > 30 µM | > 30 µM | > 30 µM | > 30 µM | > 30 µM | > 30 µM | 22 µM | > 30 µM
C[C@]12CC[C@H](O)CC1=CC[C@@H]1[C@@H]2CC[C@]2(C)C(c3cccnc3)=CC[C@@H]12 [ABIRATERONE] |  |  |  | > 10 µM | > 30 µM | > 30 µM | > 30 µM | > 30 µM | > 30 µM | > 10 µM
CCn1cc(C(=O)O)c(=O)c2cc(F)c(N3CCNCC3)nc21 [ENOXACIN] |  |  |  |  | > 30 µM | > 30 µM |  | > 30 µM | > 10 µM | > 10 µM
c1ccc2c(CC3=NCCN3)cccc2c1 [NAPHAZOLINE] |  |  |  | 0.19 µM |  |  |  |  |  | 
CC(=O)OCC[N+](C)(C)C [ACETYLCHOLINE] | > 30 µM | > 30 µM |  | > 10 µM |  | > 30 µM | > 30 µM | > 30 µM | > 30 µM | > 10 µM
Oc1c(I)cc(Cl)c2cccnc12 [CLIOQUINOL] | > 30 µM | > 30 µM | > 30 µM | > 30 µM |  |  |  |  |  | 
CN(C)c1cc(NC(=O)CNC(C)(C)C)c(O)c2c1C[C@H]1C[C@H]3[C@H](N(C)C)C(O)=C(C(N)=O)C(=O)[C@@]3(O)C(O)=C1C2=O [TIGECYCLINE] |  |  | > 30 µM | > 30 µM | > 30 µM | > 30 µM | > 30 µM | 39.5 µM | > 30 µM | > 30 µM
COCCCOc1ccnc(C[S+]([O-])c2nc3ccccc3[nH]2)c1C (configuration not stated) [RABEPRAZOLE] |  |  |  |  |  | > 30 µM |  | > 30 µM | > 10 µM | > 10 µM
NS(=O)(=O)c1cc(C2(O)NC(=O)c3ccccc32)ccc1Cl (configuration not stated) [CHLORTHALIDONE] |  |  |  |  |  |  |  | > 10 µM | > 10 µM | 
C[C@]1(COc2ccc(N3CCC(Oc4ccc(OC(F)(F)F)cc4)CC3)cc2)Cn2cc([N+](=O)[O-])nc2O1 |  |  |  | > 10 µM | > 30 µM | > 30 µM | > 10 µM |  | > 10 µM | > 10 µM
COc1ccc2c(c1)[C@]13CCCC[C@@H]1[C@H](C2)N(C)CC3 [DEXTROMETHORPHAN] |  |  |  |  | > 30 µM | > 30 µM |  | > 30 µM | > 10 µM | > 10 µM
CC[C@H]1OC(=O)[C@H](C)[C@@H](O[C@H]2C[C@@](C)(OC)[C@@H](O)[C@H](C)O2)[C@H](C)[C@@H](O[C@@H]2O[C@H](C)C[C@H](N(C)C)[C@H]2O)[C@](C)(OC)C[C@@H](C)C(=O)[C@H](C)[C@@H](O)[C@]1(C)O [CLARITHROMYCIN] | > 30 µM | > 30 µM |  |  |  | > 30 µM |  | > 30 µM |  | > 30 µM
O=C(O)CSCC(=O)NC1CCSC1=O (configuration not stated) [ERDOSTEINE] | > 30 µM | > 30 µM | > 30 µM | > 30 µM |  | > 30 µM | > 30 µM | > 30 µM | > 30 µM | > 30 µM
CNC(=O)Oc1ccc2c(c1)[C@]1(C)CCN(C)[C@@H]1N2C [PHYSOSTIGMINE] | > 30 µM | > 30 µM |  |  | > 30 µM | > 30 µM |  | > 30 µM | > 30 µM | 16 µM
O=C(CCCN1CCC2(CC1)C(=O)NCN2c1ccccc1)c1ccc(F)cc1 [SPIPERONE] | > 30 µM | > 30 µM |  | 2.25 µM |  | > 30 µM | 0.0086 µM |  |  | 9.2 µM
NS(=O)(=O)c1cc(C(=O)O)cc(N2CCCC2)c1Oc1ccccc1 [PIRETANIDE] | > 30 µM | > 30 µM | > 30 µM | > 30 µM | > 30 µM | > 30 µM | 0.92 µM |  | > 30 µM | > 30 µM
O=C(Nc1nc(-c2cc(Cl)cs2)c(N2CCN(C3CCCCC3)CC2)s1)c1cnc(N2CCC(C(=O)O)CC2)c(Cl)c1 [AVATROMBOPAG] |  |  |  | > 10 µM |  | > 10 µM | > 10 µM | > 10 µM | > 10 µM | > 10 µM
C#C[C@]1(O)CC[C@H]2[C@@H]3CCc4cc(OC)ccc4[C@H]3CC[C@@]21C [MESTRANOL] |  |  |  |  | 0.136 µM |  |  | > 30 µM | > 10 µM | 
OCCN1CCN(CC/C=C2/c3ccccc3Sc3ccc(Cl)cc32)CC1 [ZUCLOPENTHIXOL] |  |  | > 10 µM | 0.32 µM |  |  | 8.4 µM | > 30 µM | > 10 µM | 
O=C(O)c1cc(O)c2c3nc4ccccc4oc-3cc(=O)c2n1 [PIRENOXINE] | > 30 µM | > 30 µM | > 30 µM | 3.8 µM |  | > 30 µM | > 30 µM | > 30 µM | > 30 µM | > 30 µM
CNCCCC1c2ccccc2C=Cc2ccccc21 [PROTRIPTYLINE] |  |  |  |  | > 10 µM |  |  | > 30 µM |  | 
O=c1oc2ccccc2c(O)c1Cc1c(O)c2ccccc2oc1=O [DICUMAROL] |  |  |  |  |  |  |  | > 10 µM | > 10 µM | 
CO[C@@]1(NC(=O)CSCC#N)C(=O)N2C(C(=O)O)=C(CSc3nnnn3C)CS[C@@H]21 [CEFMETAZOLE] | > 30 µM | > 30 µM |  |  |  |  |  |  |  | 
N=C(N)c1ccc2cc(OC(=O)c3ccc(N=C(N)N)cc3)ccc2c1 [NAFAMOSTAT] | > 30 µM | > 30 µM | > 30 µM | 12 µM |  | > 30 µM | 8.2 µM |  |  | 7.9 µM
CCSc1ccc2c(c1)N(CCCN1CCN(C)CC1)c1ccccc1S2 [THIETHYLPERAZINE] |  |  | > 30 µM |  |  |  |  |  |  | 
C[C@H]1C[C@H]2[C@@H]3CCC4=CC(=O)C=C[C@]4(C)[C@@]3(Cl)[C@@H](O)C[C@]2(C)[C@@]1(O)C(=O)CO [BECLOMETHASONE] |  |  |  |  | > 30 µM | > 30 µM |  | > 30 µM | > 10 µM | > 10 µM
CN(C)C(=O)Oc1cc(OC(=O)N(C)C)cc(C(O)CNC(C)(C)C)c1 (configuration not stated) [BAMBUTEROL] |  |  |  |  | > 30 µM | > 30 µM |  | > 30 µM | 9.7 µM | > 30 µM
